Measurements taken from PubChem BioAssay AID1963835 (Molecular Pharmacology Branch, DTP, NCI, 2024).

Tested on: 699152-130-R-J1-PDC complex spheroid viability
Test: Anticancer human tumor 699152-130-R-J1-PDC patient-derived pancreatic carcinoma cell line growth inhibition [POLQ]
Conditions: for IC50: curve of first compound; for viability, T/C: stronger effect = lower value
In short: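 Patient-derived tumour cells were co-cultured with HUVEC and mesenchymal stem cells as multicellular spheroids at 37 °C. They were treated with POLQ inhibitors (novobiocin, ART-558, RP6685) alone or combined with other agents. Top concentrations were at or near clinical Cmax (otherwise 10 microM; SN-38 at 1 microM), decreasing in half-log steps.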

[1] = second compound 0.0316 µM, first compound 0.0316 µM
[2] = second compound 0.0316 µM, first compound 0.1 µM
[3] = second compound 0.0316 µM, first compound 0.316 µM
[4] = second compound 0.0316 µM, first compound 1 µM
[5] = second compound 0.0316 µM, first compound 3.16 µM
[6] = second compound 0.0316 µM, first compound 10 µM
[7] = second compound 0.1 µM, first compound 0.0316 µM
[8] = second compound 0.1 µM, first compound 0.1 µM
[9] = second compound 0.1 µM, first compound 0.316 µM
[10] = second compound 0.1 µM, first compound 1 µM
[11] = second compound 0.1 µM, first compound 3.16 µM
[12] = second compound 0.1 µM, first compound 10 µM
[13] = second compound 0.316 µM, first compound 0.0316 µM
[14] = second compound 0.316 µM, first compound 0.1 µM
[15] = second compound 0.316 µM, first compound 0.316 µM
[16] = second compound 0.316 µM, first compound 1 µM
[17] = second compound 0.316 µM, first compound 3.16 µM
[18] = second compound 0.316 µM, first compound 10 µM
[19] = second compound 1 µM, first compound 0.0316 µM
[20] = second compound 1 µM, first compound 0.1 µM
[21] = second compound 1 µM, first compound 0.316 µM
[22] = second compound 1 µM, first compound 1 µM
[23] = second compound 1 µM, first compound 3.16 µM
[24] = second compound 1 µM, first compound 10 µM
[25] = second compound 3.16 µM, first compound 0.0316 µM
[26] = second compound 3.16 µM, first compound 0.1 µM
[27] = second compound 3.16 µM, first compound 0.316 µM
[28] = second compound 3.16 µM, first compound 1 µM
[29] = second compound 3.16 µM, first compound 3.16 µM
[30] = second compound 3.16 µM, first compound 10 µM
[31] = second compound 10 µM, first compound 0.0316 µM
[32] = second compound 10 µM, first compound 0.1 µM
[33] = second compound 10 µM, first compound 0.316 µM
[34] = second compound 10 µM, first compound 1 µM
[35] = second compound 10 µM, first compound 3.16 µM
[36] = second compound 10 µM, first compound 10 µM
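Further: spheroids exposed to agents for 7 days before viability reading.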
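Wherever viability, T/C is given: percent of DMSO vehicle control viability so 100% = vehicle and 0% = no viable signal.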

In the case of `CC1COCCN1c1cc(-c2ccnn2C)c2ccnc(-c3ccn[nH]3)c2n1` (centres undefined) + Cc1cccc(N(C)C(=O)C2C(O)CCN2c2nc(C)cc(C(F)(F)F)c2C#N)c1, the IC50 (second compound 0.0316 µM) is reported as 2.33 µM, the IC50 (second compound 0.1 µM) is reported as > 10 µM and the IC50 (second compound 0.316 µM) is reported as 3.97 µM. For the same molecule, the IC50 (second compound 1 µM) was 5.14 µM, the IC50 (second compound 3.16 µM) was > 10 µM and the IC50 (second compound 10 µM) was > 10 µM. For the same molecule, the viability, T/C [1] was 98.3%, the viability, T/C [2] was 99.1% and the viability, T/C [3] was 74.4%. For the same molecule, the viability, T/C [4] was 58%, the viability, T/C [5] was 47.8% and the viability, T/C [6] was 45.4%. The viability, T/C [7] was 93.9%, the viability, T/C [8] was 90.3% and the viability, T/C [9] was 75.2%. For the same molecule, the viability, T/C [10] was 59.4%, the viability, T/C [11] was 62.2% and the viability, T/C [12] was 56.1%. It also gave a viability, T/C [13] of 92.2%, a viability, T/C [14] of 86.8% and a viability, T/C [15] of 75.5%. The viability, T/C [16] was 58.6%, the viability, T/C [17] was 46.3% and the viability, T/C [18] was 51.8%. The viability, T/C [19] was 107%, the viability, T/C [20] was 89% and the viability, T/C [21] was 70.9%. The viability, T/C [22] was 59%, the viability, T/C [23] was 50.2% and the viability, T/C [24] was 48.8%. The viability, T/C [25] was 109%, the viability, T/C [26] was 108% and the viability, T/C [27] was 69.4%. It also gave a viability, T/C [28] of 55.2%, a viability, T/C [29] of 51.1% and a viability, T/C [30] of 51.3%. For the same molecule, the viability, T/C [31] was 94.7%, the viability, T/C [32] was 86.5% and the viability, T/C [33] was 75.8%. It also gave a viability, T/C [34] of 65.4%, a viability, T/C [35] of 52.6% and a viability, T/C [36] of 53.8%.
With `CC1COCCN1c1cc(C2(S(C)(=N)=O)CC2)nc(-c2ccnc3[nH]ccc23)n1` (centres undefined) + Cc1cccc(N(C)C(=O)C2C(O)CCN2c2nc(C)cc(C(F)(F)F)c2C#N)c1 the IC50 (second compound 0.0316 µM) was > 10 µM, the IC50 (second compound 0.1 µM) was > 10 µM and the IC50 (second compound 0.316 µM) was > 10 µM. The IC50 (second compound 1 µM) was > 10 µM, the IC50 (second compound 3.16 µM) was > 10 µM and the IC50 (second compound 10 µM) was > 10 µM. It also gave a viability, T/C [1] of 102%, a viability, T/C [2] of 95.6% and a viability, T/C [3] of 90.2%. It also gave a viability, T/C [4] of 99.9%, a viability, T/C [5] of 81.4% and a viability, T/C [6] of 64%. The viability, T/C [7] was 99.8%, the viability, T/C [8] was 110% and the viability, T/C [9] was 89.5%. It also gave a viability, T/C [10] of 92.8%, a viability, T/C [11] of 75.2% and a viability, T/C [12] of 73.7%. The viability, T/C [13] was 110%, the viability, T/C [14] was 91.7% and the viability, T/C [15] was 102%. For the same molecule, the viability, T/C [16] was 83.5%, the viability, T/C [17] was 76.5% and the viability, T/C [18] was 68.8%. For the same molecule, the viability, T/C [19] was 107%, the viability, T/C [20] was 97.8% and the viability, T/C [21] was 97.5%. The viability, T/C [22] was 81.7%, the viability, T/C [23] was 80.2% and the viability, T/C [24] was 67.8%. The viability, T/C [25] was 102%, the viability, T/C [26] was 97.9% and the viability, T/C [27] was 99%. It also gave a viability, T/C [28] of 96.3%, a viability, T/C [29] of 77.5% and a viability, T/C [30] of 70.8%. For the same molecule, the viability, T/C [31] was 104%, the viability, T/C [32] was 110% and the viability, T/C [33] was 103%. The viability, T/C [34] was 85.8%, the viability, T/C [35] was 95.1% and the viability, T/C [36] was 69.8%.
